# Tested on: streptococcus infection
# Assay: Treatment of a patient suffering from a streptococcus infection (case report)
# Conditions: treatment repeated 4 times more
substance,measurement,value
phenoxymethylpenicillinsodium,Improvement of streptococcus infection after repeated treatment,no significant improvement

# Reference: patent US20190117713A1, “ANTIBACTERIAL COMPOSITION” (FermBiotics Holding ApS, priority 2016, published 2019)
